Assay results taken from patent US20260085315A1, “POLYNUCLEOTIDE COMPOSITIONS AND METHODS FOR TREATMENT OF CANCER” (APTAH BIO, INC., priority 2023, published 2026).
d = 2'-deoxy (DNA); m = 2'-O-methyl

What was measured:
[1] = system: U87MG (Human Glioblastoma); test: BrdU cell proliferation assay; type: cell-based
Method: In vitro effects of APT20TTMG on viability and proliferation of human cancer cell line U87MG (Human Glioblastoma) were also evaluated by MTT and BrdU assays, respectively. Cells were treated with APT20TTMG and Reference Items in technical triplicates (Experiment was done in 3 different sets) at various concentrations for 48 h, 96 h, and 144 h. APT20TTMG and Reference Items were read after every 48 h.
As shown in FIGS. 32-33, A MTT assay (FIG. 32) was also performed with another five different concentrations of APT20TTMG (0.003, 0.03, 0.3, 3, and 30 μM) and at 48, 96, and 144 hours of incubation. […] Finally, to confirm whether APT20TTMG is a cytotoxic or cytostatic molecule considering its ability to reduce cellular viability in certain concentrations, a cell proliferation assay (FIG. 33) with the U87-MG cell line was also performed in the same conditions as the MTT assay. […] Cells were plated and treated with 5 different concentrations (0.003, 0.03, 0.3, 3, and 30 μM). BrdU assay was performed after 48, 96, or 144 hours of incubation. Data are plotted as a percentage (%) of cell viability compared to the negative control group (vehicle). Results are expressed as Mean±SEM of three independent experiments performed in three technical replicates. Statistical analysis was performed using one-way ANOVA followed by Dunnett's multiple comparison test. *p<0.05, **p<0.01, ***p<0.001, ****p<0.0001.

U87-MG cell line = test: Apoptosis assay; type: cell-based, Human
TAU protein = test: Tau quantification by Western blot in SK-N-SH; type: cell-based; conditions: 0.5 μM
Method: (§1) FIG. 27A-27B illustrates MAPT expression and tau quantification obtained after 24, 48, 96 and 144 hours of incubation with ASMO1 (0.5 μM) in neuroblastoma cell line.
Cells were rinsed once with ice-cold PBS, collected, and pelleted by centrifugation at 2500 g for 5 minutes at 4° C. Each sample was re-suspended and lysed in 50 μl ice-cold radioimmunoprecipitation assay (RIPA) buffer (Thermo Fisher Scientific, USA) containing EDTA-free Halt protease and phosphatase inhibitor cocktail mixture (Thermo Fisher Scientific, USA) for 20 min at 4° C. To increase protein yields, each sample was homogenized using a 29 G×13 mm needle and syringe. Cell lysates were clarified by centrifugation at 17,000 g for 15 minutes at 4° C. Supernatants were collected and total protein concentration was determined using the BCA protein assay kit (Thermo Fisher Scientific, USA) according to the manufacturer's instructions. 15 μg of total protein in cell lysates were denatured in NuPAGE LDS sample buffer (Thermo Fisher Scientific, USA) with NuPAGE sample reducing agent (DTT; Thermo Fisher Scientific, USA) and boiled at 90° C. for 5 minutes. […] Densitometry using Image J (v1.48k; NIH) was performed and all quantification was standardized against vinculin levels.

MAPT = MAPT expression by qPCR in SK-N-SH; type: cell-based; conditions: 0.5 μM; for reduction of MAPT expression: relative to Lipofectamine 3000 only
Method: as §1
At all time points cells were rinsed once with PBS, before proceeding with RNA extraction using the RNeasy Plus Kit (Qiagen). RNA (0.1-1 μg) was converted to cDNA using the SuperScript IV First-Strand Synthesis System (Thermo Fisher), following manufacturer instructions. After RNA removal, 5-10 ng of cDNA were amplified by qPCR. The following Taqman probes (Thermo Fisher) were used: Total TAU (MAPT, Assay ID: Hs00902193_m1), GAPDH (GAPDH, Assay ID: Hs99999905_m1). Gene expression was analyzed using the Applied Biosystems QuantStudio™ 12K Flex Real-Time PCR System. Quantification of gene expression was performed using the comparative threshold cycle (2^-ΔΔCT) Livak method, relative to Lipofectamine 3000 only treated cells. Gene expression was normalized to the reference gene GAPDH.

MCF-7 cell line = test: Internalization of carboxyfluorescein-conjugated APT20TTMG by flow cytometry; type: cell-based, Human; conditions: 1 μM carboxyfluorescein conjugate
Method: To investigate the internalization of ASMO APT20TTMG by MCF-7 cell line, the quantification of intracellular fluorescence was measured by flow cytometry. For this aim, the ASMO APT20TTMG was conjugated to the fluorochrome carboxyfluorescein. It is assumed that the percentage of ASMO molecules internalized is presumably proportional to the quantified fluorescence signal detected inside the cells. The cell lines were cultured in 24-well plates for 24 hours at 5×10^4 cells per well. After that, the cells were incubated with ASMO1 prepared in culture medium without FBS at a concentration of 1 μM for 0.5, 1, 2, 4, and 6 hours. Untreated cells were used as negative controls. After treatment incubation, cells were washed twice with 1 mL of PBS/well and then incubated with 200 μL/well of trypsin/EDTA solution for approximately 3 minutes for disaggregation of adherent cells. Trypsin was neutralized by the addition of complete medium and cells were centrifuged at 1500 rpm for 5 minutes. Subsequently, the cells were washed with 2 mL/sample of PBS and centrifuged again at 1500 rpm for 5 minutes. […] The fluorescence of the cells, corresponding to the cellular uptake of the APT20TTMG labeled with carboxyfluorescein, was analyzed using a BD FACSCANTO II Flow cytometer (BD Biosciences, NJ, USA) through the acquisition of 10.000 gated events considering each sample.

[2] = two highest concentrations (0.5 and 1 μM)

Question: What does the source list for “APT20TTMG: engineered polynucleotide ASMO1, 24 nt, SEQ ID NO: 3 gtccactaacctttcaggccagcg; targeting moieties 5′-GTCCA-3′ and 5′-CG-3′, U1 snRNP recruiting moiety (GTCCACTAACCTTTCAGGCCAGCG; sugars from the 5' end m5 d14 m5, all phosphorothioate, methylation of C and T or U not given here)”?
Answer: cell proliferation (BrdU) ([1]; 0.03 μM, first 48 hours): increase in cell proliferation; cell proliferation (BrdU) ([1]; highest concentrations (0.3, 3, 30 μM), 144 hours): significant reduction in cell proliferation; cell proliferation (BrdU) ([1]; highest concentrations (0.3, 3, 30 μM), first 48 hours): temporary increase in cell proliferation; cell proliferation (BrdU) ([1]; lowest concentrations (0.003 and 0.03 μM), 144 hours): statistically significant decrease in proliferation; late apoptosis (U87-MG cell line; 0.25 μM): trend toward this state; late apoptosis (U87-MG cell line; [2]): significantly marked for late apoptosis; viable cells (apoptosis assay) (U87-MG cell line; [2]): reduce cell viability; reduction of tau protein quantification (TAU protein; first of 'the two highest concentrations' as printed (parallel to 96 h)): 40±13.3%; reduction of tau protein quantification (TAU protein; second of 'the two highest concentrations' as printed (parallel to 144 h)): 46±14.3%; MAPT expression (MAPT; 24 hours): transient increase; reduction of MAPT expression (MAPT; 96 h): 82±1.2%; reduction of MAPT expression (MAPT; 144 h): 74±4.3%; internalization (MCF-7 cell line; after 1 hour and subsequent period (to 6 h)): around 80%; internalization (MCF-7 cell line; first half hour): 75.3±1.4%
